Measurements published in paper PMC10482691, “LTP induction by structural rather than enzymatic functions of CaMKII” (Nature, 2023).
pKi: −log10 of the molar value. “And” between values parts separate entries of the source, which are not always exact repeats. Equal values may be shown once.

Assays:
[1] = target: purified CaMKIIα (Rattus norvegicus, UniProt P11275); experiment: In vitro kinase reaction: CaMKIIα phosphorylation of GST–GluA1 S831; type: biochemical; details: 30 °C, 1 mM ATP, Ki from IC50 with Km ATP 33.3 μM, read-out: apparent inhibitor constant (Ki), pS831
Procedure: Data are presented as mean values ± s.e.m. a, Schematic of the AS283 inhibitor mechanism of action: ATP-competitive inhibition blocks enzymatic activity while mimicking the nucleotide binding requirement to allow interaction with GluN2B. b, Representative immunoblot and quantification of in vitro kinase reactions at 30 °C in 1 mM ATP measuring purified CaMKIIα phosphorylation of GST–GluA1 S831 with varying concentrations of AS283 (0.41–10 μM; n = 4 independent concentration curves). For a negative control (Neg.), ATP was omitted. […] ADP:AS283 P = 0.0697; ADP:tatCN21 P < 0.0001. ***P < 0.001. d, Confocal microscopy images of HEK293 cells co-expressing GFP–CaMKII and mCherry-2BC. […] CaMKII synaptic enrichment was measured before and after cLTP (n = 14,9 cells; RM two-way ANOVA with Šídák’s multiple comparisons test). […]
CaMKII-mediated phosphorylation of GluA1 S831 or GluN2B S1303 was measured by in vitro kinase reaction with a purified GST–GluA1 C-terminal tail or GST-GluN2B C-terminal tail. […] GST, phospho-S831, CaMKII, phospho-T286 or phospho-S1303 were detected in the samples by immunoblot analysis.
The inhibition constant Ki was calculated using the Cheng–Prusoff equation for competitive inhibition: Ki = IC50/(1 + [ATP]/Km).

[2] = target: T1, CaMKII-F89G binding to GST-GluN2B-c (Homo sapiens, UniProt Q9UQM7, F89G); experiment: CaMKII-F89G binding to immobilized GST-GluN2B-c in vitro
T1 construct: made in house; host or cells: HEK293 overexpression (CaMKII mutant); BL21 bacteria (CaM, GST-GluN2Bc)
Procedure: CaMKII–GluN2B binding assays were done as described[9],[13],[25]. Briefly, GST–GluN2B-c tail (GST–2BC) was immobilized on anti-GST antibody-coated microtiter plates (Thermo Scientific), blocked for 30 min with 5% BSA and then overlaid with […] CaMKII (subunit concentration) in PIPES-buffered saline (pH 7.2) containing 2 mM Ca^2+, 1 μM CaM, 1 mM Mg^2+, 0.1% BSA and 0.1% Tween-20 for 20 min at room temperature. The addition of 1 mM ADP, 1 mM ATP, 10 μM AS283 (or AS105) or 10 μM NM-PP1 was added accordingly (Figs. 1–6). After extensive washes in buffer containing 1 mM EGTA, GST–2BC and bound CaMKII were eluted for 10 min in SDS loading buffer at 95 °C. Bound CaMKII was measured via immunoblot.
Extended Data Fig. 4 CaMKII WT and K42M are unaffected by NM-PP1 in HEK cells. Data are presented as mean values +/− SEM. a, Representative immunoblot and quantification of in vitro kinase reactions at 30 °C in 1 mM ATP measuring CaMKIIα WT and F89G phosphorylation of T286 (n = 4 independent samples, **p < 0.01, ***p < 0.001; two-way ANOVA with Šídák’s multiple comparisons test). WT) –:ATP p = 0.0012; –:ATP+NM-PP1 p = 0.0002; ATP:ATP+NM-PP1 p = 0.7989. […] Scale bar indicates 10 μm. n = 22, 17 cells; see Fig. 4c for quantification. c, Binding of CaMKII-F89G to immobilized GST-GluN2B-c was induced by Ca^2+/CaM in the presence of either 1 mM ADP or 10 μM NM-PP1. […]

[3] = target: T2, GFP–CaMKII F89G / mCh-GluN2B-c tail in HEK293 cells (Homo sapiens, UniProt Q9UQM7, F89G); experiment: Ionomycin-induced colocalization of GFP–CaMKII F89G and mCherry-2BC in HEK293 cells; type: cell-based; details: 10 µM NM-PP1
T2 construct: expressed in transfected cells; host or cells: HEK293
T2 sequence (Q13224 836-1484 S1303A): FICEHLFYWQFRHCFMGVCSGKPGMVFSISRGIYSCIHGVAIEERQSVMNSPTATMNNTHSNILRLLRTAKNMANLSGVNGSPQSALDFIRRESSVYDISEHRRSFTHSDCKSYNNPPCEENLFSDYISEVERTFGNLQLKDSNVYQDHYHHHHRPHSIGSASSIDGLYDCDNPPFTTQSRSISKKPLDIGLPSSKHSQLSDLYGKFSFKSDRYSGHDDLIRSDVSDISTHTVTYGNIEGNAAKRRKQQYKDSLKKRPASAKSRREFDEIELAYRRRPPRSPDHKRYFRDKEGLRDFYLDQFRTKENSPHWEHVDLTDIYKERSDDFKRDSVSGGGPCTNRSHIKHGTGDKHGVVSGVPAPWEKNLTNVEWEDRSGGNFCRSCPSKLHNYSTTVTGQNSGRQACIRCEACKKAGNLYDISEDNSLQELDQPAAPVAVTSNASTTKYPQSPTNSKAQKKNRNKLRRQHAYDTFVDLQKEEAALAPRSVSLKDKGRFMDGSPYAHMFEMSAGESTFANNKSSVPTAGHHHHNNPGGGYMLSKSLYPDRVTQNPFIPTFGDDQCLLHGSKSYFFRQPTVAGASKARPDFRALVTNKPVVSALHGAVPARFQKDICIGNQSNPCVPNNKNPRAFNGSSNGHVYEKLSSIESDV
T2 sequence (Q9UQM7 whole entry F89G): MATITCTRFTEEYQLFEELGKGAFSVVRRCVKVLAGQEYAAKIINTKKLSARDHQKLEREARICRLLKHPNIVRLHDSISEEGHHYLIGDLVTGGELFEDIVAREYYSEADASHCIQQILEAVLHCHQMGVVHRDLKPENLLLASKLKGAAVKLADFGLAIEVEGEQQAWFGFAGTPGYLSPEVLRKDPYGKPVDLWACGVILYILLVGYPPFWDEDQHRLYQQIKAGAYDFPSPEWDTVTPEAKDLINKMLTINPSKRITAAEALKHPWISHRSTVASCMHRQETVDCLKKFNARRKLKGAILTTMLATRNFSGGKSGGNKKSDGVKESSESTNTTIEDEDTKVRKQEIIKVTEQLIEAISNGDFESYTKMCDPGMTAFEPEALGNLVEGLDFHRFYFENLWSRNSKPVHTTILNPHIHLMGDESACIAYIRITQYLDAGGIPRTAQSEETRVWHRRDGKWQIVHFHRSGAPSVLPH

T1 sequence (Q9UQM7 whole entry F89G): as above
T1 sequence (Q13224 836-1484, further chain): as the sequence (Q13224 836-1484 S1303A) above, with A468S counted along it

| SMILES | pKi [1] | bound CaMKII-F89G (immunoblot, relative) ([2]; Ca2+/CaM, 10 μM NM-PP1) | effect on binding of CaMKII F89G to GluN2B in vitro ([2]; NM-PP1) | effect on binding of CaMKII F89G to GluN2B in HEK cells [3] |
| --- | --- | --- | --- | --- |
| NCCNc1cccc(-c2ccnc3[nH]c4ccccc4c23)c1 [AS283] | 7.77 | – | – | – |
| CC(C)(C)n1nc(Cc2cccc3ccccc23)c2c(N)ncnc21 [NM-PP1] | – | 3.501 and 3.151 and 3.552 and 3.537 | enabled binding | fully enabled binding |
